Here are results for three compounds from ChEMBL document CHEMBL1130841, “Evaluation of phosphorus-containing inhibitors of gamma-glutamyl hydrolase” (Bioorg Med Chem Lett, 1998).

Data set [1] concerns the target T1, Gamma-glutamyl hydrolase (Homo sapiens, UniProt Q92820).
T1 sequence (Q92820 whole entry): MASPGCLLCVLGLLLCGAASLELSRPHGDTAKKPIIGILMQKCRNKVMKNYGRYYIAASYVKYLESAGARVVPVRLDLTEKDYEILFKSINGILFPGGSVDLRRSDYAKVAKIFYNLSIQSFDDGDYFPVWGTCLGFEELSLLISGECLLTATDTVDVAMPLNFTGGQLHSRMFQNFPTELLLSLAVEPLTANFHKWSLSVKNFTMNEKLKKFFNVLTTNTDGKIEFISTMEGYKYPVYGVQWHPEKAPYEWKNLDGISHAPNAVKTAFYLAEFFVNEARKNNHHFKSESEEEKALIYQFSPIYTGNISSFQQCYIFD
The data set is described as follows: Compound was tested for inhibitory potency against gamma-Glutamyl Hydrolase.

Data set [2] is described as follows: Dissociation constant was evaluated. The class given is physicochemical.
A short description of data set [3]: Phosphorylation rate constant was evaluated. The class given is ADME.

`O=C(O)CC[C@H](NP(=O)(O)c1ccccc1)C(=O)O`: the Ki in data set [1] was 0.95 nM.

With `COP(=O)(N[C@@H](CCC(=O)O)C(=O)O)OC`, the Kd in data set [2] worked out at 0.223 M⁻¹. In addition, the Ki in data set [1] was determined as 10.9 M⁻¹. The compound also gave a kp in data set [3] of 2.42 min⁻¹.

`COP(=O)(N[C@@H](CCC(=O)O)C(=O)O)c1ccccc1` (some centres not stated) came in with a Kd in data set [2] of 27.4 M⁻¹. Moreover, the Ki in data set [1] was 0.264 M⁻¹. In addition, the kp in data set [3] turned out to be 7.24 min⁻¹.
